Measurements as given in patent US5037826A, “1-substituted naphthyridine and pyridopyrazine derivatives” (Schering Corporation, priority 1986, dated 1991).

How the values were obtained:
[1] = Carboni et al., Farmaco, Ed. Sci., 1973; cited from earlier work
[2] = tested on: antigen induced broncho-constriction in sensitized guinea pigs; experiment: Inhibition of anaphylactic bronchospasm in sensitized guinea pigs (ovalbumin challenge); type: in vivo, guinea pig; conditions: 2 hours before ovalbumin challenge, vs vehicle-treated control
Protocol: The compounds of this invention may be employed as anti-allergy agents in the treatment of, for example, asthma, allergic or seasonal rhinitis, and/or chronic bronchitis. The anti-allergy method of this invention is identified by tests which measure a compound's inhibition of anaphylactic bronchosoasm in sensitized guinea pigs having antigen induced broncho-constriction.
In one such test procedure, male Hartley guinea pigs (250-300 g) are sensitized with 5 mg ovalbumin injected i.p. and 5 mg injected s.c. in 1 ml saline on day 1 and 5 mg ovalbumin injected i.p. on day 4. The sensitized animals are used 3-4 weeks later at which time they weigh 450-500 g.
The sensitized guinea pigs are fasted overnight and the following morning are anesthetized with 0.9 ml/kg i.p. of dialurethane (0.1 g/ml diallybarbituric acid, 0.4 g/ml ethylurea and 0.4 g/ml urethane). The trachea are cannulated and the animals are ventilated by a Harvard® rodent respirator at 50 strokes/minute with a stroke volume of 5 ml. A side arm to the tracheal cannula is connected to a pressure transducer (Harvard) to obtain a continuous measure of intratracheal pressure which is recorded on a polygraph (Harvard). The jugular vein is cannulated for the i.v. administration of substances. The animals are challenged with antigen (0.5% ovalbumin) as an aerosol generated from a DeVilbiss® Model 65 ultrasonic nebulizer and delivered through the tracheal cannula for 30 seconds. Bronchoconstriction is measured as the peak increase in intratracheal pressure occurring within 5 minutes after antigen challenge.
The sensitized guinea pigs are injected i.v. with 1 mg/kg propranolol, 5 mg/kg indomethacin and 2 mg/kg mepyramine given together in a volume of 1 ml/kg. Fifteen minutes later the animals are challenged with nebulized ovalbumin. Test compounds are administered orally 2 hours before challenge with ovalbumin. Suppression of anaphylactic bronchospasm is expressed as a percent inhibition of the peak increase in intratracheal pressure by comparison to a vehicle-treated control group.

[3] = tested on: reverse passive Arthus reaction in the pleural cavity of rats; experiment: Reverse passive Arthus reaction in the pleural cavity of rats (Myers et al.); type: in vivo; conditions: Rattus norvegicus, po; pleural fluid
Protocol: Another procedure for testing for acute anti-inflammatory activity measures the reverse passive Arthus reaction in the pleural cavity of rats as described in Myers et al., Inflammation, Vol. 9, No. 1, 1985, pp. 91-98. Compound A provided an ED50 value (fluid) of about 5.0 mg/kg p.o. in such procedure.

[4] = tested on: spleen weight of BDF1 mice; experiment: Splenic atrophy, decrease in spleen weight; type: in vivo; conditions: Mus musculus, oral, seven consecutive days
Protocol: The immunosuppressive activity of the compounds may also be shown by a decrease in spleen weight after dosing BDF1 mice orally with the drug for seven (7) consecutive days. The mice are sacrificed on the eighth day. The percent decrease in spleen weight is measured for each dosage level. In this procedure, Compound A provided an ED30 of less than 25 mg/kg.

[5] = tested on: GVHR splenomegaly in C57 B1/6XA/J(F6AF1) male mice; experiment: Graft vs. host reaction (GVHR), spleen weight; type: in vivo, mouse; conditions: 100 mg/kg orally for 10 days; compared to untreated animals
Protocol: To induce a GVHR, C57 B1/6XA/J(F6AF1) male mice were injected intravenously with parental (C57B/6J) spleen and lymph node cells. 3-(2-Hydroxyethyl)-1-phenyl-1,8-naphthyridin-2(1H)-one (Compound A) was then administered orally for 10 days beginning on the day prior to the cell transfer. On the day following the last treatment, the animals were sacrificed, and their spleens were excised and weighed. The enlargement of the spleen of the host is a result of a GVHR. To some extent it is the host's own cells which infiltrate and enlarge the spleen although they do this because of the presence of graft cells reacting against the host. The amount of spleen enlargement, splenomegaly, is taken as a measure of the severity of the GVHR.
In carrying out the GVHR the animal in the experimental group is injected with parental cells, cells of the same species but of different genotype, which cause a weight increase of the spleen. […] The effectiveness of the compounds administered to the mice in the experimental group is measured by comparing the spleen weight of the untreated and treated GVH animal with that of the syngeneic control. Compound A in this test procedure reduced spleen weight by 92% at a dose of 100 mg/kg as compared to the untreated animals.

[6] = tested on: Reversed Passive Arthus Response in the right rear paw of rats; experiment: Reversed Passive Arthus Response (RPAR), rat paw volume; type: in vivo; conditions: 25 mg/kg p.o. once daily for 3 days
Protocol: Male Lewis inbred albino rats weighing 180-200 grams obtained from Charles River Breeding Laboratories are used in these experiments. The rats are housed 3 animals/cage and food and water are allowed ad libitum. The animals are numbered 1-3 in each cage and color marked for identification purposes.
All reagents and drugs are prepared just prior to the study. Crystallized and lyophilized bovine serum albumin (BSA), available from Sigma Chemical Company, is solubilized without shaking in cold, sterile, pyrogen-free saline (10 mg/ml). Lyophilized anti-bovine serum albumin (IgG fraction), obtained from Cappel Laboratories, is suspended in sterile distilled water and diluted with cold, pyrogen-free saline (PFS) just prior to use. […]
Groups of animals (6/group) are dosed with drug in MC by gavace once daily for 3 days. […] The volume of mercury displaced is converted to weight and recorded. This value is considered to be the control reading for the animal. Paw volumes are subsequently recorded with a plethysmograph during the development of the inflammation at 2 and 4 hours post-challenge.
Results are expressed by the chance in paw volume (Δ paw volume) from the control reading for each animal to that recorded 2 and 4 hours post-challenge. […] Differences from control in drug-treated groups are expressed as percent change from control are determined.

O=c1ccc2ccc(OCc3ccccc3)nc2n1Cc1ccccc1 [1-benzyl-7-benzyloxy-[1,8]naphthyridin-2-one]
antibacterial activity [1]: inactive

O=c1c(CCO)cc2cccnc2n1-c1cccc(Cl)c1 [B]
% Inhibition of anaphylactic bronchospasm (peak increase in intratracheal pressure) ([2]; dose p.o. 2 mg/kg): 79%

O=c1c(CCO)cc2cccnc2n1-c1ccccc1 [Compound A, 3-(2-Hydroxyethyl)-1-phenyl-1,8-naphthyridin-2(1H)-one]
ED50 [3]: ~5 mg/kg
ED30 [4]: < 25 mg/kg
% Inhibition of anaphylactic bronchospasm (peak increase in intratracheal pressure) ([2]; dose p.o. 5 mg/kg): 78%
reduction of spleen weight [5]: 92%

COCCOc1c(C)c2cccnc2n(-c2ccccc2)c1=O [Compound C]
% inhibition (Δ paw volume) after 2 hours ([6]; 2 hours post-challenge): 74%
% inhibition (Δ paw volume) after 4 hours ([6]; 4 hours post-challenge): 36%
% Inhibition of anaphylactic bronchospasm (peak increase in intratracheal pressure) ([2]; dose p.o. 5 mg/kg): 25%
